Measurements reported in patent US8883792B2, “Substituted isoquinoline derivative” (D. Western Therapeutics Institute, Inc., priority 2010, dated 2014).
Counter-ions that a name gives are not always drawn.

What was measured:
[1] = tested on: spontaneously hypertensive rats (SHR/Izm); experiment: Blood pressure lowering effect in spontaneously hypertensive rats; assay type: in vivo; details: Rattus norvegicus, ip, male SHR/Izm rats, intraperitoneal, measured over time, read-out: lowered the systolic blood pressures by up to, compared with the value before administration
Method: The compound of the present invention was intraperitoneally administered to spontaneously hypertensive rats (SHR/Izm, sex: male, 4 to 6 rats per group) and evaluated for its blood pressure lowering effect. The compounds of Examples 5, 23, 25, 35, 36, 53, 58, 83, 84, 86, 87, and 90 were used as test compounds.
Each test compound was dissolved in saline and diluted to prepare a test compound solution with a predetermined concentration.
The test compound was intraperitoneally administered at a dose of 10 mg/kg to the animals, and their blood pressures and pulse rates were measured over time using Softron Indirect Blood Pressure Meter BP-98A.

[2] = tested on: rabbits (New Zealand White); experiment: Ocular hypotensive effect in rabbits; assay type: in vivo, rabbit; details: male New Zealand White rabbits, 0.04 mL eye drop, concentration of 1% (w/v) or lower, maximum ocular hypotensive rate vs vehicle-treated contralateral eye
Outline: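 Male New Zealand White rabbits (3–6 per group) received 0.04 mL compound solution (pH 7.0 phosphate/NaCl vehicle or 2% boric acid) in one eye and vehicle in the other. IOP measured by rebound tonometer before dosing and over time; ocular hypotensive rate taken as treated-eye IOP relative to vehicle-eye IOP.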

With `CCCCNC[C@@H](C)NS(=O)(=O)c1ccc2cnccc2c1` [Example 5, (R)—N-{1-(butylamino)propan-2-yl}isoquinoline-6-sulfonamide dihydrochloride] the inhibition in vivo at 10 mg/kg [1] was no more than 16% and the Ocular hypotensive activity [2] was “++ (maximum ocular hypotensive rate of 15% or more)”.

For `C[C@H](CNCCc1ccccc1)NS(=O)(=O)c1ccc2cnccc2c1` [Example 23, (R)—N-{1-(phenethylamino)propan-2-yl}isoquinoline-6-sulfonamide dihydrochloride], the inhibition in vivo at 10 mg/kg [1] was no less than 30% and the Ocular hypotensive activity [2] was “++ (maximum ocular hypotensive rate of 15% or more)”.

For `C[C@H](CNC[C@H](C)c1ccccc1)NS(=O)(=O)c1ccc2cnccc2c1` [Example 25, N—[(R)-1-{(R)-2-phenylpropylamino}propan-2-yl]isoquinoline-6-sulfonamide dihydrochloride], the inhibition in vivo at 10 mg/kg [1] was no less than 30% and the Ocular hypotensive activity [2] was “++ (maximum ocular hypotensive rate of 15% or more)”.

In the case of `C[C@H](CNCCCCc1ccccc1)NS(=O)(=O)c1ccc2cnccc2c1` [Example 35, (R)—N-{1-(4-phenylbutylamino)propan-2-yl}isoquinoline-6-sulfonamide dihydrochloride], the inhibition in vivo at 10 mg/kg [1] is reported as no more than 20% and the Ocular hypotensive activity [2] is reported as “++ (maximum ocular hypotensive rate of 15% or more)”.

With `C[C@H](CNCCc1c[nH]c2ccccc12)NS(=O)(=O)c1ccc2cnccc2c1.Cl` [Example 36, (R)—N-[1-{2-(1H-indol-3-yl)ethylamino}propan-2-yl]isoquinoline-6-sulfonamide hydrochloride] the inhibition in vivo at 10 mg/kg [1] was no less than 30% and the Ocular hypotensive activity [2] was “++ (maximum ocular hypotensive rate of 15% or more)”.

`C[C@H](CNCCc1ccc(F)cc1)NS(=O)(=O)c1ccc2cnccc2c1.Cl` [Example 53, (R)—N-{1-(4-fluorophenethylamino)propan-2-yl}isoquinoline-6-sulfonamide hydrochloride] was tested, and the inhibition in vivo at 10 mg/kg [1] was no less than 30% and the Ocular hypotensive activity [2] was “++ (maximum ocular hypotensive rate of 15% or more)”.

`Cc1ccc(CCNC[C@@H](C)NS(=O)(=O)c2ccc3cnccc3c2)cc1.Cl` [Example 58, (R)—N-{1-(4-methylphenethylamino)propan-2-yl}isoquinoline-6-sulfonamide hydrochloride] was tested, and the inhibition in vivo at 10 mg/kg [1] was no less than 30% and the Ocular hypotensive activity [2] was “++ (maximum ocular hypotensive rate of 15% or more)”.

With `C[C@H](CNC[C@@H](O)c1ccccc1)NS(=O)(=O)c1ccc2cnccc2c1.Cl` [Example 83, N—[(R)-1-{(S)-2-hydroxy-2-phenylethylamino}propan-2-yl]isoquinoline-6-sulfonamide hydrochloride] the inhibition in vivo at 10 mg/kg [1] was no less than 30% and the Ocular hypotensive activity [2] was “++ (maximum ocular hypotensive rate of 15% or more)”.

With `C[C@H](CNC[C@@H](O)c1ccc(F)cc1)NS(=O)(=O)c1ccc2cnccc2c1.Cl` [Example 84, N—[(R)-1-{(S)-2-(4-fluorophenyl)-2-hydroxyethylamino}propan-2-yl]isoquinoline-6-sulfonamide hydrochloride] the inhibition in vivo at 10 mg/kg [1] was no more than 20% and the Ocular hypotensive activity [2] was “++ (maximum ocular hypotensive rate of 15% or more)”.

In the case of `C[C@H](CNC[C@@](C)(O)c1ccccc1)NS(=O)(=O)c1ccc2cnccc2c1.Cl` [Example 86, N—[(R)-1-{(S)-2-hydroxy-2-phenylpropylamino}propan-2-yl]isoquinoline-6-sulfonamide hydrochloride], the inhibition in vivo at 10 mg/kg [1] is reported as no less than 30% and the Ocular hypotensive activity [2] is reported as “++ (maximum ocular hypotensive rate of 15% or more)”.

For `C[C@H](CNC[C@H](O)c1ccccc1)NS(=O)(=O)c1ccc2cnccc2c1.Cl` [Example 87, N—[(R)-1-{(R)-2-hydroxy-2-phenylethylamino}propan-2-yl]isoquinoline-6-sulfonamide hydrochloride], the inhibition in vivo at 10 mg/kg [1] was no more than 20% and the Ocular hypotensive activity [2] was “++ (maximum ocular hypotensive rate of 15% or more)”.

With `C[C@H](CNC[C@@H](O)c1ccsc1)NS(=O)(=O)c1ccc2cnccc2c1.Cl` [Example 90, N—[(R)-1-{(S)-2-hydroxy-2-(thiophen-3-yl)ethylamino}propan-2-yl]isoquinoline-6-sulfonamide hydrochloride] the inhibition in vivo at 10 mg/kg [1] was no more than 20% and the Ocular hypotensive activity [2] was “++ (maximum ocular hypotensive rate of 15% or more)”.

In the case of `C[C@@H](NS(=O)(=O)c1ccc2cnccc2c1)[C@@H](N)CCCc1ccccc1` [Example 117, N-{(2R,3S)-3-amino-6-phenylhexan-2-yl)isoquinoline-6-sulfonamide hydrochloride], the Ocular hypotensive activity [2] is reported as “++ (maximum ocular hypotensive rate of 15% or more)”.

`CNC(CCc1ccccc1)C[C@@H](C)NS(=O)(=O)c1ccc2cnccc2c1` (stereo partly drawn) [Example 120, N-{(2R)-4-(methylamino)-6-phenylhexan-2-yl}isoquinoline-6-sulfonamide dihydrochloride] was tested, and the Ocular hypotensive activity [2] was “++ (maximum ocular hypotensive rate of 15% or more)”.
